# In patent publication US20140235616A1, “PYRAZOLOQUINOLINONE DERIVATIVES, PREPARATION THEREOF AND THERAPEUTIC USE THEREOF” (SANOFI, priority 2011, published 2014):
# Molecular target: T1, human MetAP2 (Homo sapiens, UniProt P50579)
# T1 construct: made in house; host or cells: Sf9 insect cells (baculovirus)
# Assay: MetAP2 enzymatic screening test (isolated enzyme, Met-Pro-Arg-pNa substrate, absorbance at 405 nm)
# Type: biochemical
# Settings: read-out: % inhibition hMETAP2 at 100 nM
# Protocol: The compounds according to the invention underwent biochemical studies in order to determine their capacity to inhibit the enzyme methionine-aminopeptidase2 (enzymatic test on isolated enzyme).
# MetAP2 Enzymatic Screening Test
# For the enzymatic test, human MetAP2 protein was obtained from a culture supernatant of insect cells (sf9) infected with MetAP2 recombinant baculovirus.
# Before performing the experiment, dialysis of the MetAP2 supernatant is performed over 24 hours at 4° C. in a buffer (10 mM Hepes, 100 mM KCl, 10% glycerol, pH 7.4) in the presence of EDTA (1 mM) over the first 12 hours.
# The dialysis supernatant is recovered and manganese, used as cofactor, is added to a final concentration of 300 μM.
# The enzymatic test is a test in two steps.
# Consequently, the second step consists in reacting the peptides cleaved in the preceding step with a second peptidase in order to release the chromophore.
# T1 sequence (P50579 whole entry): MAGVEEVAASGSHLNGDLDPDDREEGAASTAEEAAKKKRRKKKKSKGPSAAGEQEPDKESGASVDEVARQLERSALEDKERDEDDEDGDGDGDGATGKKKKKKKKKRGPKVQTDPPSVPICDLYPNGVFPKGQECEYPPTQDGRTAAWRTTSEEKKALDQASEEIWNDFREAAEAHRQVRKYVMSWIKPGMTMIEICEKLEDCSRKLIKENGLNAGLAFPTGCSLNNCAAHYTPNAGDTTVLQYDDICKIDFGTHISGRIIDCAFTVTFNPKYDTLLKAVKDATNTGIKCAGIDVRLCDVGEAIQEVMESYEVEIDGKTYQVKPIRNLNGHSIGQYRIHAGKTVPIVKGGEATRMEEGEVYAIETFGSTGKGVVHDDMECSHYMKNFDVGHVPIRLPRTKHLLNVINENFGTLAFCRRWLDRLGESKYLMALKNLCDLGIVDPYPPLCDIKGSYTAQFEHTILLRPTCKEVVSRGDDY
row,SMILES,inhibition at 0.1 µM [%]
1,"CCn1c(=O)c2cn[nH]c2c2ccc(-c3ccc(C(=O)NCCCN(C)C)cc3)cc21 [Compound 9, N-(3-dimethylaminopropyl)-4-(5-ethyl-4-oxo-4,5-dihydro-1H-pyrazolo[4,3-c]quinolin-7-yl)benzamide]",78
2,"CCn1c(=O)c2cn[nH]c2c2ccc(-c3ccc(N4CCNCC4)cc3)cc21 [Compound 10, 5-ethyl-7-(4-piperazin-1-ylphenyl)-1,5-dihydro-4H-pyrazolo[4,3-c]quinolin-4-one]",77
3,"CCn1c(=O)c2cn[nH]c2c2ccc(-c3ccc(N4CCN(C)CC4)cc3)cc21 [Compound 11, 5-ethyl-7-[4-(4-methylpiperazin-1-yl)phenyl]-1,5-dihydro-4H-pyrazolo[4,3-c]quinolin-4-one]",76
4,"CCn1c(=O)c2cn[nH]c2c2ccc(-c3ccc(C(=O)NCCN(C)C)cc3)cc21 [Compound 13, N-(2-dimethylaminoethyl)-4-(5-ethyl-4-oxo-4,5-dihydro-1H-pyrazolo[4,3-c]quinolin-7-yl)benzamide]",75
5,"CCn1c(=O)c2cn[nH]c2c2ccc(-c3ccc(C(C)N(C)C)cc3)cc21 (centres unmarked) [Compound 15, 7-[4-(1-dimethylaminoethyl)phenyl]-5-ethyl-1,5-dihydro-4H-pyrazolo[4,3-c]quinolin-4-one]",74
6,"CCn1c(=O)c2cn[nH]c2c2ccc(-c3ccc(C(=O)N4CCNCC4)cc3)cc21 [Compound 18, 5-ethyl-7-[4-(piperazine-1-carbonyl)phenyl]-1,5-dihydro-4H-pyrazolo[4,3-c]quinolin-4-one]",72
7,"CCn1c(=O)c2cn[nH]c2c2ccc(-c3cnc(N4CCNCC4)nc3)cc21 [Compound 20, 5-ethyl-7-(2-piperazin-1-ylpyrimidin-5-yl)-1,5-dihydro-4H-pyrazolo[4,3-c]quinolin-4-one]",70
8,"CCn1c(=O)c2cn[nH]c2c2ccc(-c3ccc(C(=O)N4CCN(C)CC4)cc3)cc21 [Compound 21, 5-ethyl-7-[4-(4-methylpiperazine-1-carbonyl)phenyl]-1,5-dihydro-4H-pyrazolo[4,3-c]quinolin-4-one]",70
9,"CCn1c(=O)c2cn[nH]c2c2ccc(-c3ccc(C(C)N4CCCC4)cc3)cc21 (centres unmarked) [Compound 22, 5-ethyl-7-[4-(1-pyrrolidin-1-yl-ethyl)phenyl]-1,5-dihydro-4H-pyrazolo[4,3-c]quinolin-4-one]",69
10,"CCn1c(=O)c2cn[nH]c2c2ccc(-c3ccc(N)cc3C)cc21 [Compound 24, 7-(4-amino-2-methylphenyl)-5-ethyl-1,5-dihydro-4H-pyrazolo[4,3-c]quinolin-4-one]",67
11,"CCn1c(=O)c2cn[nH]c2c2ccc(-c3ccc(F)c(C(=O)NC)c3)cc21 [Compound 27, 5-(5-ethyl-4-oxo-4,5-dihydro-1H-pyrazolo[4,3-c]quinolin-7-yl)-2-fluoro-N-methylbenzamide]",67
12,"CCn1c(=O)c2cn[nH]c2c2ccc(-c3cc(OC)ccc3F)cc21 [Compound 28, 5-ethyl-7-(2-fluoro-5-methoxyphenyl)-1,5-dihydro-4H-pyrazolo[4,3-c]quinolin-4-one]",67
13,"CCn1c(=O)c2cn[nH]c2c2ccc(-c3ccc(C(=O)N4CCOCC4)c(Cl)c3)cc21 [Compound 29, 7-[3-chloro-4-(morpholine-4-carbonyl)phenyl]-5-ethyl-1,5-dihydro-4H-pyrazolo[4,3-c]quinolin-4-one]",67
14,"CCn1c(=O)c2cn[nH]c2c2ccc(-c3cnc(N4CCN(C)CC4)nc3)cc21 [Compound 31, 5-ethyl-7-[2-(4-methylpiperazin-1-yl)pyrimidin-5-yl]-1,5-dihydro-4H-pyrazolo[4,3-c]quinolin-4-one]",64
15,"CCn1c(=O)c2cn[nH]c2c2ccc(-c3ccc(C(N)=O)c(Cl)c3)cc21 [Compound 33, 2-chloro-4-(5-ethyl-4-oxo-4,5-dihydro-1H-pyrazolo[4,3-c]quinolin-7-yl)benzamide]",62
16,"CCn1c(=O)c2cn[nH]c2c2ccc(-c3ccc4[nH]ncc4c3)cc21 [Compound 34, 5-ethyl-7-(1H-indazol-5-yl)-1,5-dihydro-4H-pyrazolo[4,3-c]quinolin-4-one]",62
17,"CCNC(=O)c1cccc(-c2ccc3c4[nH]ncc4c(=O)n(CC)c3c2)c1 [Compound 35, N-ethyl-3-(5-ethyl-4-oxo-4,5-dihydro-1H-pyrazolo[4,3-c]quinolin-7-yl)benzamide]",62
18,"CCn1c(=O)c2cn[nH]c2c2ccc(-c3ccc(F)c(C(N)=O)c3)cc21 [Compound 36, 5-(5-ethyl-4-oxo-4,5-dihydro-1H-pyrazolo[4,3-c]quinolin-7-yl)-2-fluoro-benzamide]",61

row,SMILES,inhibition at 0.1 µM [%]
1,"CCn1c(=O)c2cn[nH]c2c2ccc(-c3cccc(C(=O)NCCN(C)C)c3)cc21 [Compound 37, N-(2-dimethylaminoethyl)-3-(5-ethyl-4-oxo-4,5-dihydro-1H-pyrazolo[4,3-c]quinolin-7-yl)benzamide]",60
2,"CCn1c(=O)c2cn[nH]c2c2ccc(-c3ccc(CNC(C)=O)cc3)cc21 [Compound 38, N-[4-(5-ethyl-4-oxo-4,5-dihydro-1H-pyrazolo[4,3-c]quinolin-7-yl)benzyl]acetamide]",60
3,"CCn1c(=O)c2cn[nH]c2c2ccc(-c3cccc(C(=O)NCCOC)c3)cc21 [Compound 39, 3-(5-ethyl-4-oxo-4,5-dihydro-1H-pyrazolo[4,3-c]quinolin-7-yl)-N-(2-methoxyethyl)benzamide]",60
4,"O=c1c2cn[nH]c2c2ccc(-c3cccc(O)c3)cc2n1CC(F)(F)F [Compound 40, 7-(3-hydroxyphenyl)-5-(2,2,2-trifluoroethyl)-1,5-dihydro-4H-pyrazolo[4,3-c]quinolin-4-one]",40
5,"O=c1c2cn[nH]c2c2ccc(-c3ccnc(Cl)c3F)cc2n1CC(F)(F)F [Compound 41, 7-(2-chloro-3-fluoropyrid-4-yl)-5-(2,2,2-trifluoroethyl)-1,5-dihydro-4H-pyrazolo[4,3-c]quinolin-4-one]",40
6,"COc1ccc(-c2ccc3c4[nH]ncc4c(=O)n(CC(F)(F)F)c3c2)c(CO)c1 [Compound 49, 7-(2-hydroxymethyl-4-methoxyphenyl)-5-(2,2,2-trifluoroethyl)-1,5-dihydro-4H-pyrazolo[4,3-c]quinolin-4-one]",45
7,"O=c1c2cn[nH]c2c2ccc(-c3cccc(Cl)c3O)cc2n1CC(F)(F)F [Compound 53, 7-(3-chloro-2-hydroxyphenyl)-5-(2,2,2-trifluoroethyl)-1,5-dihydro-4H-pyrazolo[4,3-c]quinolin-4-one]",43
8,"COC(=O)c1ccc(-c2ccc3c4[nH]ncc4c(=O)n(CC(F)(F)F)c3c2)c(N)c1 [Compound 55, methyl 3-amino-4-[4-oxo-5-(2,2,2-trifluoroethyl)-4,5-dihydro-1H-pyrazolo[4,3-c]quinolin-7-yl]benzoate]",40
9,"O=c1c2cn[nH]c2c2ccc(-c3cc(Cl)cnc3Cl)cc2n1CC(F)(F)F [Compound 57, 7-(2,5-dichloropyrid-3-yl)-5-(2,2,2-trifluoroethyl)-1,5-dihydro-4H-pyrazolo[4,3-c]quinolin-4-one]",38
10,"COc1ccc(-c2ccc3c4[nH]ncc4c(=O)n(CC(F)(F)F)c3c2)cn1 [Compound 128, 7-(6-methoxypyrid-3-yl)-5-(2,2,2-trifluoroethyl)-1,5-dihydro-4H-pyrazolo[4,3-c]quinolin-4-one]",41
11,"O=c1c2cn[nH]c2c2ccc(-c3cc(Cl)cnc3F)cc2n1CC(F)(F)F [Compound 129, 7-(5-chloro-2-fluoropyrid-3-yl)-5-(2,2,2-trifluoroethyl)-1,5-dihydro-4H-pyrazolo[4,3-c]quinolin-4-one]",36
12,"CC(=O)Nc1ncc(C)cc1-c1ccc2c3[nH]ncc3c(=O)n(CC(F)(F)F)c2c1 [Compound 130, N-{5-methyl-3-[4-oxo-5-(2,2,2-trifluoroethyl)-4,5-dihydro-1H-pyrazolo[4,3-c]quinolin-7-yl]pyrid-2-yl}acetamide]",48
13,"O=c1c2cn[nH]c2c2ccc(-c3ccccc3CCO)cc2n1CC(F)(F)F [Compound 131, 7-[2-(2-hydroxy-ethyl)phenyl]-5-(2,2,2-trifluoroethyl)-1,5-dihydro-4H-pyrazolo[4,3-c]quinolin-4-one]",46
14,"Nc1ncc(F)cc1-c1ccc2c3[nH]ncc3c(=O)n(CC(F)(F)F)c2c1 [Compound 132, 7-(2-amino-5-fluoropyrid-3-yl)-5-(2,2,2-trifluoroethyl)-1,5-dihydro-4H-pyrazolo[4,3-c]quinolin-4-one]",46
15,"O=c1c2cn[nH]c2c2ccc(-c3ccccc3S(=O)(=O)N3CCCC3)cc2n1CC(F)(F)F [Compound 133, 7-[2-(pyrrolidine-1-sulfonyl)phenyl]-5-(2,2,2-trifluoroethyl)-1,5-dihydro-4H-pyrazolo[4,3-c]quinolin-4-one]",45
16,"CC(C)NS(=O)(=O)c1ccccc1-c1ccc2c3[nH]ncc3c(=O)n(CC(F)(F)F)c2c1 [Compound 134, N-isopropyl-2-[4-oxo-5-(2,2,2-trifluoroethyl)-4,5-dihydro-1H-pyrazolo[4,3-c]quinolin-7-yl]benzenesulfonamide]",45
17,"Cc1cnc(F)c(-c2ccc3c4[nH]ncc4c(=O)n(CC(F)(F)F)c3c2)c1 [Compound 135, 7-(2-fluoro-5-methylpyrid-3-yl)-5-(2,2,2-trifluoroethyl)-1,5-dihydro-4H-pyrazolo[4,3-c]quinolin-4-one]",45
